# Reference: article PMC5589648, “Acetyl-lupeolic acid inhibits Akt signaling and induces apoptosis in chemoresistant prostate cancer cells in vitro and in vivo” (Oncotarget, 2017)
# Columns and labels:
# [1] = target: T1, Akt3 (Homo sapiens, UniProt Q9Y243); assay: in vitro kinase assay, [γ-32P]ATP, GST-GSK-3β substrate; format: biochemical
# T1 construct: active recombinant human Akt3
# [2] = target: T2, Akt1 (Homo sapiens, UniProt P31749); assay: as above; format: biochemical
# T2 construct: active recombinant human Akt1
# T2 sequence (P31749 whole entry): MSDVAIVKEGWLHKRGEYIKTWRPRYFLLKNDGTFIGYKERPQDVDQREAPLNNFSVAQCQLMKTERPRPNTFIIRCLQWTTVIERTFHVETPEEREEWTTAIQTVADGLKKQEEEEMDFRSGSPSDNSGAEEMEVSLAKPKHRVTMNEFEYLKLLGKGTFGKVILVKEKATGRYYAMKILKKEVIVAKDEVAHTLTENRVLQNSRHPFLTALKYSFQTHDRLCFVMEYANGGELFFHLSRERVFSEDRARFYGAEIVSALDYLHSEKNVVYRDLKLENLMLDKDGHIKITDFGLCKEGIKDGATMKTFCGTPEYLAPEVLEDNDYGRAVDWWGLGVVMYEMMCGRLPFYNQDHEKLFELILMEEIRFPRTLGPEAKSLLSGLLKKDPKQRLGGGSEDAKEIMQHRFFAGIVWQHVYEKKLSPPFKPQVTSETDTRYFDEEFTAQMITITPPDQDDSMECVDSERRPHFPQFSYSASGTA
# T1 sequence (Q9Y243 2-479): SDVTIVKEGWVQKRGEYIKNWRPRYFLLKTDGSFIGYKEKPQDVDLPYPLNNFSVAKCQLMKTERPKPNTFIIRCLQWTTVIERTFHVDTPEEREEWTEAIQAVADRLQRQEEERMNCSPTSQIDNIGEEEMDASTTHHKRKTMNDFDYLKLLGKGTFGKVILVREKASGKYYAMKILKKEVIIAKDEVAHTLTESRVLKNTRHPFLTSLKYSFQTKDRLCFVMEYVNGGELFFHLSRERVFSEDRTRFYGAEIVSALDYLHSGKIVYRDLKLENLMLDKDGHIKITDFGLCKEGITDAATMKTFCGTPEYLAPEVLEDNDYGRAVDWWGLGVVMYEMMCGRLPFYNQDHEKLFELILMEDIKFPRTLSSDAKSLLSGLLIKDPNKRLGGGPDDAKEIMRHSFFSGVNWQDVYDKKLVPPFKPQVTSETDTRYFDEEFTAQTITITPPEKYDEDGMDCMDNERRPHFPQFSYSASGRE
compound,measurement,setting,value
C=C(C)[C@@H]1CC[C@]2(C)CC[C@]3(C)[C@H](CC[C@@H]4[C@@]5(C)CC[C@H](O)C(C)(C)[C@@H]5CC[C@]43C)[C@@H]12 [lupeol],"in vitro kinase assay, [γ-32P]ATP, GST-GSK-3β substrate",[1],"Compared to ac-LA, lupeol was about threefold less potent in the inhibition of Akt1 and Akt3 isoforms"
same,"in vitro kinase assay, [γ-32P]ATP, GST-GSK-3β substrate",[2],"Compared to ac-LA, lupeol was about threefold less potent in the inhibition of Akt1 and Akt3 isoforms"
